Laboratory results published in patent publication US4631293A, “(-) Campholenic acid ester of salicylic acid and pharmaceutically acceptable salts thereof having mucosecretolytic, anti-inflammatory, analgesic, and antipyretic activity” (Camillo Corvi S.p.A., priority 1984, dated 1986).
Entries after “also recorded” stand apart in the source; their conditions may differ. Where two headings read alike, the source gives them in different places.

How the values were obtained:
[1] = system: carrageenin induced oedema; experiment: Anti-oedemigenous activity: carrageenin induced oedema (Winter et al.); type: in vivo, rat (female albine Wistar); details: for ED40: 3 h, read-out: Anti-oedemigenous activity ED40
Procedure: Method of carrageenin induced oedema according to Winter C. A. et al--Proc. Soc. […] Female albine Wistar rats (120-160 g of body weight) are utilized. The drug under test is administered orally one hour before injection into the right hind paw of a carrageenin water suspension (1% volume injected ml 0.05).

bronchial secretion = experiment: Bronchosecretagogue activity: quantitative evaluation of the bronchial secretion of rabbit (Scuri et al.); type: in vivo, rabbit (adult male brown); details: oral
Source text: Method of quantitative evaluation of the bronchial secretion of rabbit according to Scuri R. et al. Boll. Chim. Farm. […] Adult male brown rabbits (2.8-3.5 kg of body weight) are employed, to which a T shaped tracheal cannula, by surgical operation, as described in the mentioned bibliographic reference, is applied. To the cannula, a container for periodical collection of the bronchial secretion is applied. The study of mucoproduction, started at the fourth day after the operation, is divided into two periods, each of 4 hours, for collecting and measuring the mucus secreted. The action of the drug under examination, is tested by administering the same orally at the begining of the second mucus collection period and evaluating the percent increase of mucus production (as measured gravimetrically in the second period in comparison with the first period).

[2] = system: phenylquinone abdominal contractions; experiment: Analgesic activity: phenylquinone method (abdominal contractions); type: in vivo, mouse (female Swiss albine); details: for ED50: read-out: Analgesic activity ED50; for analgesic activity (in words): oral, comparison with acetylsalicylic acid
Procedure: Female Swiss albine mice (20-25 g), fasting for 2 hours, are utilized.
The test drug is administered orally 30 minutes before the endoperitoneal injection of phenylquinone (0.08 mg/mouse).
The characteristic abdominal contractions are counted individually during a 20 minutes period.

pleural exudate = experiment: Anti-exudative activity: quantitative evaluation of the pleural exudate of a rat (carrageenin pleuritis); type: in vivo, rat (female albine Wistar); details: for ED50: 6 h, read-out: Anti-exudative activity ED50
Procedure: Method of the quantitative evaluation of the pleural exudate of a rat according to Vinegar E. et al.-Proc. Soc. […] Female albine Wistar rats (average weight 160 g), fasting from the evening preceding the test, are used. The experimental pleuritis is induced by injecting into the pleural cavity, under ethereal anesthesia, 0.15 ml of a 1% carrageenin solution (Prodotti Gianni-Milano). The test drug is administered orally, half an hour before the carrageenin. Six hours after the carrageenin injection, the animals are sacrificed and volumetric measurement of the pleural exudate, as withdrawn by a syringe, is performed.

yeast induced pyrexia = experiment: Antipyretic activity: yeast induced pyrexia in the rat; type: in vivo, rat (female Wistar albine); details: for ED50: oral simultaneously with yeast, Temperature Index
Procedure: Method of yeast induced pyrexia in the rat. Female Wistar albine rats, weighing 100-140 g, are utilized. The animals having a basal rectal temperature from 36° to 37° C. are selected. The testing substances are administered orally simultaneously with the pyretic agent (dry brewers' yeast suspended in water at the 20% concentration, administered volume 15 ml/kg, subcutaneously) to groups of 5 animals per dose. After 4, 5, 6, 7 and 24 hours from the treatment, the rectal temperature of the animals is recorded by an Ellab RM6 probe, connected to an Ellab-mod. TE-3 thermometer. The activity of the drugs is evaluated by utilizing a Temperature Index, which is given by the algebraic sum of the differences in the rectal temperature between the measure values at different times and the basal value;

stomach [3] = experiment: Gastric tolerability: gastric ulcerogenesys by repeated drug administrations; type: in vivo, rat (female Wistar albine); details: rat
Procedure: (§1) Method of gastric ulcerogenesys by repeated drug administrations.
(§2) Fed female Wistar albine rats (140-160 g of initial body weight) are used.
(§3) The drug under test is administered orally, daily, for five days. At the end of the test the stomach of the rats is withdrawn, it is dissected along the lesser curvature, washed and observed in order to disclose the presence of either gastric lesions or manifest submucosa hemorrhages.
(§4) The "ulcerogenic dose 50" (UD50) is defined as the daily dose able to induce lesions or hemorrhages in 50% of the animals treated.

[4] = as above; type: in vivo, rat (female Wistar albine); details: rat, in vivo, po
Procedure: as §1, §2, §3, §4

mouse [5] = experiment: Lethal dose 50 (LD50) in the mouse after a single oral administration; type: in vivo; details: in comparison with acetylsalicylic acid
Procedure: (§5) Method for studying the lethal dose 50(LD50) in the mouse after a single administration.
(§6) Groups of 10 Swiss albine, female, adult (20-22 g of body weight) mice, fasting from the evening preceding the test, are treated orally with various doses of the test drug suspended in hydroxyethylcellulose (0.50% weight/volume).
(§7) Thereafter, the animals are fed again.
(§8) LD50 is calculated by the method of Litchfield J. T. and Wilcoxon F. (J. Pharmacol. 96, 99-113, 1949) by utilizing the mortality data as obtained on the 14th day after the test drug administration.

[6] = as above; type: in vivo; details: in vivo, single administration, 14th day mortality
Procedure: as §5, §6, §7, §8

mouse [7] = details: literature datum, Hart E R J. Pharm. Exp. Ther. 89 205, 1947; 20160 min; cited from earlier work
stomach [8] = details: Arrigono-Martelli, Meth. Find. Exp. Clin. Pharmacol. 1, 157, 1979; 7200 min; cited from earlier work

CC1=CCC(CC(=O)Oc2ccccc2C(=O)O)C1(C)C (single isomer, unassigned) [CO/1473, 2-(2,2,3-trimethyl-3-cyclopentene-1-acetoxy)benzoic acid]
ED40 ([1]; rat, oral one hour before carrageenin, paw volume after three hours): 400 mg/kg
anti-oedemigenous activity in comparison with acetylsalicylic acid (in words) ([1]; rat, oral, first test of Table 3): superior in the first test
ED50 (bronchial secretion; Oryctolagus cuniculus, 4 h, percent increase of mucus production): 60 mg/kg
bronchosecretagogue activity (in words) (bronchial secretion): has bronchosecretagogue activity in the rabbit
ED50 ([2]; mouse, oral 30 minutes before phenylquinone): 52 mg/kg
analgesic activity (in words) ([2]; mouse): slightly more active than acetylsalicylic acid
ED50 (pleural exudate; rat, oral half an hour before carrageenin, exudate volume after six hours): 320 mg/kg
anti-exudative activity in comparison with acetylsalicylic acid (in words) (pleural exudate; rat, oral, second test of Table 3): slightly inferior in the second
ED50 (yeast induced pyrexia): 400 mg/kg
antipyretic activity (in words) (yeast induced pyrexia; oral, comparison with acetylsalicylic acid): interesting antipyretic activity in the rat, though lower than the one of acetylsalicylic acid
gastro-damaging effect (in words) (stomach [3]; up to the maximum dose of 800 mg/kg os/die for 5 days, listed as compound of the invention, 800 mg/kg): does not show any gastro-damaging effect; also recorded: very good gastric tolerability
NOAEL at 120 h [4]: 800 mg/kg
acute toxicity (in words) (mouse [5]): low acute toxicity
LD50 at 336 h [6]: 913 mg/kg

CC(=O)Oc1ccccc1C(=O)O [acetylsalicylic acid, reference compound]
ED40 ([1]; Rattus norvegicus, po): 400 mg/kg
Bronchosecretagogue activity ED50 (bronchial secretion; percent increase of mucus production): inactive
LD50 (mouse [7]): 1100 mg/kg os.
ED50 ([2]; Mus musculus, po): 70 mg/kg
analgesic activity (in words) ([2]; mouse): good analgesic activity in the mouse
ED50 (pleural exudate; Rattus norvegicus, po): 215 mg/kg
ED50 (yeast induced pyrexia): 157 mg/kg
gastro-damaging dose, times lower than that of CO/1473 (stomach [3]; oral, acetylsalicylic acid dose versus CO/1473 dose): 16 times lower
UD50 (ulcerogenic dose 50) (stomach [8]): 48 mg/kg os.
